Assay results taken from ChEMBL document CHEMBL3988181, “GlaxoSmithKline Published Kinase Inhibitor Set 2 Onchocerca lienalis Screening Data”.

Assay: GSK PKIS2: Screen against O. lienalis microfilariae, single point, at 3.1uM to assess reduction in motility. Compounds were also tested for cytotoxicity against Rhesus Monkey LLCMK2 cells.
Type: functional, Onchocerca lienalis, LLC-MK2
Conditions: CELL_LINE LLCMK2; CELL_SUPPLIER ECACC; CONC 3.1 uM; ORGANISM_SUPPLIER Extracted from peri-umbilical skin obtained from naturally infected cattle in the UK; temperature 37 degree C

CC[C@@H]1CO[C@H](C(=O)Nc2ccccc2)CN1c1cc(-c2ccc3c(N)n[nH]c3c2)nc(NC)n1
MOTILITY REDUCTION/CYTOTOXICITY: 0%

Clc1ccc(-c2nn3ncccc3c2-c2ccnc(Nc3ccc4c(c3)OCCO4)n2)cc1
MOTILITY REDUCTION/CYTOTOXICITY: 0%

Fc1ccc(Nc2nccc(-c3c(-c4ccc(Cl)cc4)nn4ncccc34)n2)cc1F
MOTILITY REDUCTION/CYTOTOXICITY: 0%

CN(c1ccc2c(c1)nc(NCc1ccc(F)cc1)n2C)c1ccnc(Nc2ccc(CS(C)(=O)=O)cc2)n1
MOTILITY REDUCTION/CYTOTOXICITY: 0%

O=C(Nc1n[nH]c2cc(-c3cccs3)ccc12)C1CC1
MOTILITY REDUCTION/CYTOTOXICITY: 0%

COc1cc2ncn(-c3cc(OCc4ccncc4Br)c(C(N)=O)s3)c2cc1OC
MOTILITY REDUCTION/CYTOTOXICITY: 0%

c1ccc(Cn2cnc3cc(Nc4ncnc5ccccc45)ccc32)cc1
MOTILITY REDUCTION/CYTOTOXICITY: 16.7%

COc1cc2ncn(-c3cc(OCc4ccncc4)c(C(N)=O)s3)c2cc1OC
MOTILITY REDUCTION/CYTOTOXICITY: 0%

CNc1ncnc2[nH]ncc12
MOTILITY REDUCTION/CYTOTOXICITY: 0%

CN(c1ccc(NC(=O)Nc2cc(C(F)(F)F)ccc2F)cc1)c1ccnc(Nc2ccc(S(N)(=O)=O)cc2)n1
MOTILITY REDUCTION/CYTOTOXICITY: 100%

Cc1ccccc1-c1cc(-c2c[nH]nc2-c2ccccn2)ccn1
MOTILITY REDUCTION/CYTOTOXICITY: 0%

NC[C@H](CC1CCCCC1)NC(=O)c1cc(Br)c(-c2ccnc3[nH]ccc23)s1
MOTILITY REDUCTION/CYTOTOXICITY: 0%

COc1ccc(Nc2nccc(N3CCC(NC(=O)Nc4cccc(C(C)=O)c4)C3)n2)cc1 (stereo not given)
MOTILITY REDUCTION/CYTOTOXICITY: 0%

Nc1ncc(-c2cn[nH]c2)c2scc(-c3ccc4c(c3)CCN4C(=O)Cc3ccccc3)c12
MOTILITY REDUCTION/CYTOTOXICITY: 0%

Cc1ccc(S(=O)(=O)Nc2ccc(Nc3nccc(Nc4cccc5[nH]ncc45)n3)cc2)cc1
MOTILITY REDUCTION/CYTOTOXICITY: 0%

Cc1ccc(NC(=O)Nc2ccc(Cl)cc2)cc1-c1ccc(C(=O)Nc2ccncc2)cc1
MOTILITY REDUCTION/CYTOTOXICITY: 86.7%

COc1cc(Nc2nccc(N3CCC(NC(=O)c4cccc(C#N)c4)C3)n2)cc(OC)c1OC (stereo not given)
MOTILITY REDUCTION/CYTOTOXICITY: 0%

Fc1cc(Cl)ccc1Nc1ccnc2cc(-c3ccc(CN4CCSCC4)o3)ccc12
MOTILITY REDUCTION/CYTOTOXICITY: 33.4%

C[C@@H]1CC[C@@H](C(=O)Nc2ccccc2)CN1c1cc(-c2ccc3c(N)n[nH]c3c2)nc(N)n1
MOTILITY REDUCTION/CYTOTOXICITY: 0%

Nc1nc(-c2ccccn2)c(-c2ccnc3ccccc23)s1
MOTILITY REDUCTION/CYTOTOXICITY: 0%

Cn1cc(-c2ccc3c(c2)CCN3C(=O)Cc2cccc(Cl)c2)c2c(N)ncnc21
MOTILITY REDUCTION/CYTOTOXICITY: 0%

CC(=O)c1c(-c2ccncc2)[nH]c(-c2ccncc2)c1C
MOTILITY REDUCTION/CYTOTOXICITY: 33.4%

COc1ccccc1C1=C(Nc2cccc(O)c2)C(=O)NC1=O
MOTILITY REDUCTION/CYTOTOXICITY: 100%

Cc1cc(C)cc(Oc2nccc(-c3c(-c4ccc(F)cc4)ncn3C3CCNCC3)n2)c1
MOTILITY REDUCTION/CYTOTOXICITY: 20%

O=C1NC(=O)C(c2ccc(Cl)cc2)=C1Nc1cccc(Cl)c1
MOTILITY REDUCTION/CYTOTOXICITY: 33.4%

COc1cccc(C2=C(Nc3cccc(Cl)c3)C(=O)NC2=O)c1
MOTILITY REDUCTION/CYTOTOXICITY: 0%

O=C(c1ccc(-c2cc(-c3c[nH]nc3-c3ccccn3)ccn2)cc1)N1CCCC1
MOTILITY REDUCTION/CYTOTOXICITY: 0%

Cc1occc1-c1ncc(OC[C@@H](N)Cc2c[nH]c3ccccc23)cc1-c1ccc2[nH]nc(C)c2c1
MOTILITY REDUCTION/CYTOTOXICITY: 0%

Nc1nc(-c2ccc3c(N)n[nH]c3c2)cc(N2CCC[C@@H](C(=O)Nc3ccccc3)C2)n1
MOTILITY REDUCTION/CYTOTOXICITY: 0%

COc1ccccc1C1=C(Nc2ccc(O)c(Cl)c2)C(=O)NC1=O
MOTILITY REDUCTION/CYTOTOXICITY: 0%

Cc1nccc(-c2c(-c3ccc(F)cc3)ncn2CCCN2CCOCC2)n1
MOTILITY REDUCTION/CYTOTOXICITY: 0%

FC(F)(F)c1ccccc1-c1cc(-c2c[nH]nc2-c2ccccn2)ccn1
MOTILITY REDUCTION/CYTOTOXICITY: 0%

Nc1n[nH]c2cc(-c3ccccn3)ccc12
MOTILITY REDUCTION/CYTOTOXICITY: 0%

Nc1n[nH]c2nnc(-c3ccccc3)c(-c3ccccc3)c12
MOTILITY REDUCTION/CYTOTOXICITY: 0%

Cc1n[nH]c2ccc(-c3cc(OC[C@@H](N)Cc4ccccc4)cnc3-c3ccoc3)cc12
MOTILITY REDUCTION/CYTOTOXICITY: 0%

CSc1ccc(NC2=C(c3cccc(Cl)c3)C(=O)NC2=O)cc1
MOTILITY REDUCTION/CYTOTOXICITY: 0%

COc1ccc(Nc2nccc(-c3ccc(NC(=O)c4cc5cc(F)ccc5[nH]4)cc3)n2)cc1
MOTILITY REDUCTION/CYTOTOXICITY: 60%

COc1cc2nccc(Nc3ccc(Oc4ccccc4)cc3)c2cc1OC
MOTILITY REDUCTION/CYTOTOXICITY: 0%

CS(=O)(=O)CCNCc1nc(-c2ccc3ncnc(Nc4ccc5c(cnn5Cc5ccccc5)c4)c3c2)cs1
MOTILITY REDUCTION/CYTOTOXICITY: 33.4%

CS(=O)(=O)Nc1ccc(-c2ccnc3[nH]ccc23)cc1
MOTILITY REDUCTION/CYTOTOXICITY: 0%

N#Cc1cccc(C(=O)NC2CCN(c3ccnc(Nc4ccc(F)cc4)n3)C2)c1 (stereo not given)
MOTILITY REDUCTION/CYTOTOXICITY: 20%

CCn1c(-c2nonc2N)nc2ccccc21 [GW549034X]
MOTILITY REDUCTION/CYTOTOXICITY: 0%

Cc1ccc(-c2cc(-c3c[nH]nc3-c3ccccn3)ccn2)cc1
MOTILITY REDUCTION/CYTOTOXICITY: 0%

O=C1NC(=O)C(c2ccc(Cl)cc2)=C1Nc1ccc(O)c(Cl)c1
MOTILITY REDUCTION/CYTOTOXICITY: 33.4%

COc1ccc(Nc2nccc(NCCNC(=O)Nc3ccccc3F)n2)cc1
MOTILITY REDUCTION/CYTOTOXICITY: 0%

NS(=O)(=O)c1cccc(Nc2cc(-c3ccc(F)cc3)n[nH]2)c1
MOTILITY REDUCTION/CYTOTOXICITY: 33.4%

Cn1cc(-c2ccc3c(c2)CCN3C(=O)Cc2ccccc2Cl)c2c(N)ncnc21
MOTILITY REDUCTION/CYTOTOXICITY: 16.7%

NCC(NC(=O)c1cc(-c2cccnc2)c(-c2ccnc3[nH]ccc23)s1)c1ccccc1 (stereo not given)
MOTILITY REDUCTION/CYTOTOXICITY: 0%

Nc1cccc(-c2ccc3c(N)n[nH]c3c2)n1
MOTILITY REDUCTION/CYTOTOXICITY: 0%

O=C(Nc1[nH]nc2cc(-c3cccc(F)c3F)ccc12)C1CC1
MOTILITY REDUCTION/CYTOTOXICITY: 0%

Oc1ccc2ncnc(Nc3ccc(OCc4ccccc4)cc3)c2c1
MOTILITY REDUCTION/CYTOTOXICITY: 100%

CC(C)(C)n1cnc2c(N)ncnc21
MOTILITY REDUCTION/CYTOTOXICITY: 0%

CCCc1ccc(S(=O)(=O)NC2CCN(c3ccnc(Nc4ccc(OC)cc4)n3)C2)cc1 (stereo not given)
MOTILITY REDUCTION/CYTOTOXICITY: 0%

Cc1cc(-c2ccnc(Nc3cccc(C#N)c3)n2)cc(C)c1O
MOTILITY REDUCTION/CYTOTOXICITY: 0%

Cc1ccc(C)c(NC(=O)NC2CCN(c3ccnc(Nc4ccc(F)cc4)n3)C2)c1 (stereo not given)
MOTILITY REDUCTION/CYTOTOXICITY: 33.4%

CCn1c(-c2ccncc2)nc2cnccc21
MOTILITY REDUCTION/CYTOTOXICITY: 0%

COc1cc(Nc2nccc(N3CCC(NC(=O)c4cccc(NC(C)=O)c4)C3)n2)cc(OC)c1OC (stereo not given)
MOTILITY REDUCTION/CYTOTOXICITY: 33.4%

O=C1NC(=O)C(N2CCc3ccccc32)=C1c1ccccc1Cl
MOTILITY REDUCTION/CYTOTOXICITY: 20%

CCCCCc1nc2c(N)ncnc2n1CCCCC
MOTILITY REDUCTION/CYTOTOXICITY: 0%

Nc1nc(-c2ccccc2F)c(-c2ccnc3ccccc23)s1
MOTILITY REDUCTION/CYTOTOXICITY: 46.7%
